# Assay results as given in PubChem BioAssay (NCI).
#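 The compound was tested at five concentrations on cells cultured in 96-well plates, with a 48-hour exposure period. The concentration for 50% growth inhibition is given as GI50. TGI: concentration producing complete growth inhibition.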
# Key:
# Test in all cases: NCI tumour cell line growth inhibition, 48 h
# [1] = test system: 786-0 renal
# [2] = test system: A498 renal
# [3] = test system: A549 NSCLC
# [4] = test system: ACHN renal
# [5] = test system: BT-549 breast
# [6] = test system: CAKI-1 renal
# [7] = test system: CCRF-CEM leukemia
# [8] = test system: COLO 205 colon
# [9] = test system: DU-145 prostate
# [10] = test system: EKVX NSCLC
# [11] = test system: HCC-2998 colon
# [12] = test system: HCT-116 colon
# [13] = test system: HCT-15 colon
# [14] = test system: HL-60(TB) leukemia
# [15] = test system: HOP-62 NSCLC
# [16] = test system: HOP-92 NSCLC
# [17] = test system: HS 578T breast
# [18] = test system: HT29 colon
# [19] = test system: IGROV1 ovarian
# [20] = test system: K-562 leukemia
# [21] = test system: KM12 colon
# [22] = test system: LOX IMVI melanoma
# [23] = test system: M14 melanoma
# [24] = test system: MALME-3M melanoma
# [25] = test system: MCF7 breast
# [26] = test system: MDA-MB-231 breast
# [27] = test system: MOLT-4 leukemia
# [28] = test system: NCI-H226 lung
# [29] = test system: NCI-H23 lung
# [30] = test system: NCI-H460 lung
# [31] = test system: NCI-H522 lung
# [32] = test system: NCI/ADR-RES ovarian
# [33] = test system: OVCAR-3 ovarian
# [34] = test system: OVCAR-4 ovarian
# [35] = test system: OVCAR-5 ovarian
# [36] = test system: OVCAR-8 ovarian
# [37] = test system: PC-3 prostate
# [38] = test system: RPMI-8226 leukemia
# [39] = test system: RXF 393 renal
# [40] = test system: SF-268 CNS
# [41] = test system: SF-295 CNS
# [42] = test system: SF-539 CNS
# [43] = test system: SK-MEL-2 melanoma
# [44] = test system: SK-MEL-28 melanoma
# [45] = test system: SK-MEL-5 melanoma
# [46] = test system: SK-OV-3 ovarian
# [47] = test system: SN12C renal
# [48] = test system: SNB-19 CNS
# [49] = test system: SNB-75 CNS
# [50] = test system: SR leukemia
# [51] = test system: SW-620 colon
# [52] = test system: T-47D breast
# [53] = test system: TK-10 renal
# [54] = test system: U251 CNS
# [55] = test system: UACC-257 melanoma
# [56] = test system: UACC-62 melanoma
# [57] = test system: UO-31 renal
compound,measurement,setting,value
CSCCC(NC(=O)CNC(=O)C(CC(=O)O)NC(=O)C(NC(=O)C(NC(=O)C(NC(=O)CNC(=O)C(CCC(N)=O)NC(=O)C(CCSC)NC(=O)C(CC(=O)O)NC(=O)C(C)NC(=O)C(C)NC(=O)C(NC(=O)C(CO)NC(=O)C(N)CC(C)C)C(C)O)C(C)C)C(C)C)C(C)O)C(=O)NC(C)C(=O)NC(CO)C(=O)NCC(=O)NC(CC(C)C)C(=O)NC(CC(=O)O)C(=O)NC(CCCCN)C(=O)NC(CC(=O)O)C(=O)NC(Cc1ccc(O)cc1)C(=O)NC(CC(C)C)C(=O)NC(CCCCN)C(=O)N1CCCC1C(=O)NC(CC(=O)O)C(=O)NC(CC(=O)O)C(=O)O (centres undefined),GI50,[1],> 82.5 µM
same,TGI,[1],> 82.5 µM
same,GI50,[2],> 82.5 µM
same,TGI,[2],> 82.5 µM
same,GI50,[3],> 82.5 µM
same,TGI,[3],> 82.5 µM
same,GI50,[4],> 82.5 µM
same,TGI,[4],> 82.5 µM
same,GI50,[5],> 82.5 µM
same,TGI,[5],> 82.5 µM
same,GI50,[6],> 82.5 µM
same,TGI,[6],> 82.5 µM
same,GI50,[7],> 82.5 µM
same,TGI,[7],> 82.5 µM
same,GI50,[8],> 82.5 µM
same,TGI,[8],> 82.5 µM
same,GI50,[9],> 82.5 µM
same,TGI,[9],> 82.5 µM
same,GI50,[10],> 82.5 µM
same,TGI,[10],> 82.5 µM
same,GI50,[11],> 82.5 µM
same,TGI,[11],> 82.5 µM
same,GI50,[12],> 82.5 µM
same,TGI,[12],> 82.5 µM
same,GI50,[13],> 82.5 µM
same,TGI,[13],> 82.5 µM
same,GI50,[14],> 82.5 µM
same,TGI,[14],> 82.5 µM
same,GI50,[15],> 82.5 µM
same,TGI,[15],> 82.5 µM
same,GI50,[16],> 82.5 µM
same,TGI,[16],> 82.5 µM
same,GI50,[17],> 82.5 µM
same,TGI,[17],> 82.5 µM
same,GI50,[18],> 82.5 µM
same,TGI,[18],> 82.5 µM
same,GI50,[19],> 82.5 µM
same,TGI,[19],> 82.5 µM
same,GI50,[20],> 82.5 µM
same,TGI,[20],> 82.5 µM
same,GI50,[21],> 82.5 µM
same,TGI,[21],> 82.5 µM
same,GI50,[22],> 82.5 µM
same,TGI,[22],> 82.5 µM
same,GI50,[23],> 82.5 µM
same,TGI,[23],> 82.5 µM
same,GI50,[24],> 82.5 µM
same,TGI,[24],> 82.5 µM
same,GI50,[25],> 82.5 µM
same,TGI,[25],> 82.5 µM
same,GI50,[26],> 82.5 µM
same,TGI,[26],> 82.5 µM
same,GI50,[27],> 82.5 µM
same,TGI,[27],> 82.5 µM
same,GI50,[28],> 82.5 µM
same,TGI,[28],> 82.5 µM
same,GI50,[29],> 82.5 µM
same,TGI,[29],> 82.5 µM
same,GI50,[30],> 82.5 µM
same,TGI,[30],> 82.5 µM
same,GI50,[31],> 82.5 µM
same,TGI,[31],> 82.5 µM
same,GI50,[32],> 82.5 µM
same,TGI,[32],> 82.5 µM
same,GI50,[33],> 82.5 µM
same,TGI,[33],> 82.5 µM
same,GI50,[34],> 82.5 µM
same,TGI,[34],> 82.5 µM
same,GI50,[35],> 82.5 µM
same,TGI,[35],> 82.5 µM
same,GI50,[36],> 82.5 µM
same,TGI,[36],> 82.5 µM
same,GI50,[37],> 82.5 µM
same,TGI,[37],> 82.5 µM
same,GI50,[38],> 82.5 µM
same,TGI,[38],> 82.5 µM
same,GI50,[39],> 82.5 µM
same,TGI,[39],> 82.5 µM
same,GI50,[40],> 82.5 µM
same,TGI,[40],> 82.5 µM
same,GI50,[41],> 82.5 µM
same,TGI,[41],> 82.5 µM
same,GI50,[42],> 82.5 µM
same,TGI,[42],> 82.5 µM
same,GI50,[43],> 82.5 µM
same,TGI,[43],> 82.5 µM
same,GI50,[44],> 82.5 µM
same,TGI,[44],> 82.5 µM
same,GI50,[45],> 82.5 µM
same,TGI,[45],> 82.5 µM
same,GI50,[46],> 82.5 µM
same,TGI,[46],> 82.5 µM
same,GI50,[47],> 82.5 µM
same,TGI,[47],> 82.5 µM
same,GI50,[48],> 82.5 µM
same,TGI,[48],> 82.5 µM
same,GI50,[49],> 82.5 µM
same,TGI,[49],> 82.5 µM
same,GI50,[50],> 82.5 µM
same,TGI,[50],> 82.5 µM
same,GI50,[51],> 82.5 µM
same,TGI,[51],> 82.5 µM
same,GI50,[52],> 82.5 µM
same,TGI,[52],> 82.5 µM
same,GI50,[53],> 82.5 µM
same,TGI,[53],> 82.5 µM
same,GI50,[54],> 82.5 µM
same,TGI,[54],> 82.5 µM
same,GI50,[55],> 82.5 µM
same,TGI,[55],> 82.5 µM
same,GI50,[56],> 82.5 µM
same,TGI,[56],> 82.5 µM
same,GI50,[57],> 82.5 µM
same,TGI,[57],> 82.5 µM
